Laboratory results from US6352958B1, “Cycloimido-substituted benzofused heterocyclic herbicides” (FMC Corporation, priority 1997, dated 2002).

Assays:
Type in all cases: in vivo
[1] = system: common cocklebur (Xanthium strumarium L.); experiment: Preemergence herbicidal activity, cocklebur; conditions: Rate of Application 0.3 Kg/Ha, examined after 12-17 days
[2] = system: blackgrass (Aloepecurus myosuroides); experiment: Preemergence herbicidal activity, blackgrass; conditions: Rate of Application 0.3 Kg/Ha, examined after 12-17 days
[3] = system: velvetleaf (Abutilon theophrasti); experiment: Preemergence herbicidal activity, velvetleaf; conditions: Rate of Application 0.3 Kg/Ha, examined after 12-17 days
[4] = system: field corn (Zea mays var. Pioneer 3732); experiment: Postemergence herbicidal activity, corn; conditions: rate of application 0.3 Kg/Ha, rated after 12-17 days
[5] = system: wheat (Triticum aestivum var. Lew); experiment: Postemergence herbicidal activity, wheat; conditions: rate of application 0.3 Kg/Ha, rated after 12-17 days
[6] = system: soybean (Glycine max var. Winchester); experiment: Postemergence herbicidal activity, soybean; conditions: rate of application 0.3 Kg/Ha, rated after 12-17 days
[7] = system: green foxtail (Setaria viridis); experiment: Preemergence herbicidal activity, green foxtail; conditions: Rate of Application 0.3 Kg/Ha, examined after 12-17 days
[8] = system: morningglory (Ipomea lacunosa or Ipomea hederacea); experiment: Preemergence herbicidal activity, morningglory; conditions: Rate of Application 0.3 Kg/Ha, examined after 12-17 days
[9] = system: morningglory (Ipomea lacunosa or Ipomea hederacea); experiment: Postemergence herbicidal activity, morningglory; conditions: rate of application 0.3 Kg/Ha, rated after 12-17 days
[10] = system: blackgrass (Aloepecurus myosuroides); experiment: Postemergence herbicidal activity, blackgrass; conditions: rate of application 0.3 Kg/Ha, rated after 12-17 days
Method: The benzofused heterocyclic compounds of this invention were tested for pre- and postemergence herbicidal activity using a variety of crops and weeds. The test plants included soybean (Glycine max var. Winchester), field corn (Zea mays var. Pioneer 3732), wheat (Triticum aestivum var. Lew), morningglory (Ipomea lacunosa or Ipomea hederacea), velvetleaf (Abutilon theophrasti), green foxtail (Setaria viridis), Johnsongrass (Sorghum halepense), blackgrass (Aloepecurus myosuroides), common chickweed (Stellaria media), and common cocklebur (Xanthium strumarium L.).
For preemergence testing, two disposable fiber flats (8 cm×15 cm×25 cm) for each rate of application of each candidate herbicide were filled to an approximate depth of 6.5 cm with steam-sterilized sandy loam soil. The soil was leveled and impressed with a template to provide five evenly spaced furrows 13 cm long and 0.5 cm deep in each flat. Seeds of soybean, wheat, corn, green foxtail, and johnsongrass were planted in the furrows of the first flat, and seeds of velvetleaf, morningglory, common chickweed, cocklebur, and blackgrass were planted in the furrows of the second flat. The five-row template was employed to firmly press the seeds into place. A topping soil of equal portions of sand and sandy loam soil was placed uniformly on top of each flat to a depth of approximately 0.5 cm. Flats for postemergence testing were prepared in the same manner except that they were planted 9-14 days prior to the preemergence flats and were placed in a greenhouse and watered, thus allowing the seeds to germinate and the foliage to develop.
In both pre- and postemergence tests, a stock solution of the candidate herbicide was prepared by dissolving 0.27 g of the compound in 20 mL of water/acetone (50/50) containing 0.5% v/v sorbitan monolaurate. For an application rate of 3000 g/ha of herbicide a 10 mL portion of the stock solution was diluted with water/acetone (50/50) to 45 mL.
The preemergence flats were initially subjected to a light water spray. The four flats were placed two by two along a conveyor belt (i.e., the two preemergence followed by the two postemergence flats). The conveyor belt fed under a spray nozzle mounted about ten inches above the post-emergent foliage. The preemergent flats were elevated on the belt so that the soil surface was at the same level below the spray nozzle as the foliage canopy of the postemergent plants. The spray of herbicidal solution was commenced and once stabilized, the flats were passed under the spray at a speed to receive a coverage equivalent of 100 L/ha. At this coverage the application rates are those shown in the above table for the individual herbicidal solutions. The preemergence flats were watered immediately thereafter, placed in the greenhouse and watered regularly at the soil surface. The postemergence flats were immediately placed in the green-house and not watered until 24 hours after treatment with the test solution. Thereafter they were regularly watered at ground level. After 12-17 days the plants were examined and the phytotoxicity data were recorded.
Phytotoxicity data were taken as percent control. Percent control was determined by a method similar to the 0 to 100 rating system disclosed in “Research Methods in Weed Science,” 2nd ed., B. Truelove, Ed.; Southern Weed Science Society; Auburn University, Auburn, Ala., 1977.

[11] = system: field corn (Zea mays var. Pioneer 3732); experiment: Preemergence herbicidal activity, corn; conditions: Rate of Application 0.3 Kg/Ha, examined after 12-17 days
[12] = system: common cocklebur (Xanthium strumarium L.); experiment: Postemergence herbicidal activity, cocklebur; conditions: rate of application 0.3 Kg/Ha, rated after 12-17 days
[13] = system: velvetleaf (Abutilon theophrasti); experiment: Postemergence herbicidal activity, velvetleaf; conditions: rate of application 0.3 Kg/Ha, rated after 12-17 days
[14] = system: Johnsongrass (Sorghum halepense); experiment: Postemergence herbicidal activity, johnsongrass; conditions: rate of application 0.3 Kg/Ha, rated after 12-17 days
[15] = system: Johnsongrass (Sorghum halepense); experiment: Preemergence herbicidal activity, johnsongrass; conditions: Rate of Application 0.3 Kg/Ha, examined after 12-17 days
[16] = system: green foxtail (Setaria viridis); experiment: Postemergence herbicidal activity, green foxtail; conditions: rate of application 0.3 Kg/Ha, rated after 12-17 days
[17] = system: soybean (Glycine max var. Winchester); experiment: Preemergence herbicidal activity, soybean; conditions: Rate of Application 0.3 Kg/Ha, examined after 12-17 days
[18] = system: wheat (Triticum aestivum var. Lew); experiment: Preemergence herbicidal activity, wheat; conditions: Rate of Application 0.3 Kg/Ha, examined after 12-17 days

SMILES | PREEMERGENCE HERBICIDAL ACTIVITY (% CONTROL) XANPE [1] [%] | PREEMERGENCE HERBICIDAL ACTIVITY (% CONTROL) ALOMY [2] [%] | PREEMERGENCE HERBICIDAL ACTIVITY (% CONTROL) ABUTH [3] [%] | Postemergence herbicidal activity (% control) CRN [4] [%] | Postemergence herbicidal activity (% control) WHT [5] [%] | Postemergence herbicidal activity (% control) SOY [6] [%] | PREEMERGENCE HERBICIDAL ACTIVITY (% CONTROL) SETVI [7] [%] | PREEMERGENCE HERBICIDAL ACTIVITY (% CONTROL) IPOSS [8] [%] | Postemergence herbicidal activity (% control) IPOSS [9] [%] | Postemergence herbicidal activity (% control) ALOMY [10] [%] | PREEMERGENCE HERBICIDAL ACTIVITY (% CONTROL) CRN [11] [%] | Postemergence herbicidal activity (% control) XANPE [12] [%] | Postemergence herbicidal activity (% control) ABUTH [13] [%] | Postemergence herbicidal activity (% control) SORHA [14] [%] | PREEMERGENCE HERBICIDAL ACTIVITY (% CONTROL) SORHA [15] [%] | Postemergence herbicidal activity (% control) SETVI [16] [%] | PREEMERGENCE HERBICIDAL ACTIVITY (% CONTROL) SOY [17] [%] | PREEMERGENCE HERBICIDAL ACTIVITY (% CONTROL) WHT [18] [%]
CC(c1ccccc1)c1nc2c(Cl)cc(F)c(-n3c(=O)cc(C(F)(F)F)n(C)c3=O)c2[nH]1 (stereo not drawn) [Compound 377] | 100 | 100 | 100 | 100 | 80 | 95 | 100 | 100 | 100 | 100 | 90 | 100 | 100 | 100 | 100 | 100 | 100 | 70
Cn1c(C(F)(F)F)cc(=O)n(-c2c(F)cc(Cl)c3nc(CCc4ccccc4)[nH]c23)c1=O [Compound 379] | 100 | 80 | 100 | 100 | 80 | 95 | 100 | 100 | 100 | 70 | 70 | 100 | 100 | 100 | 95 | 100 | 100 | 50
Cn1c(C(F)(F)F)cc(=O)n(-c2c(F)cc(Cl)c3nc(CCCc4ccccc4)[nH]c23)c1=O [Compound 380] | 80 | 90 | 100 | 95 | 30 | 95 | 100 | 100 | 100 | 70 | 20 | 100 | 100 | 80 | 70 | 100 | 80 | 35
Cn1c(C(F)(F)F)cc(=O)n(-c2c(F)cc(Cl)c3nc(Cc4ccccc4Cl)[nH]c23)c1=O [Compound 381] | 100 | 90 | 100 | 95 | 40 | 95 | 100 | 100 | 100 | 100 | 80 | 100 | 100 | 100 | 80 | 100 | 100 | 40
Cn1c(C(F)(F)F)cc(=O)n(-c2c(F)cc(Cl)c3nc(Cc4cccc(Cl)c4)[nH]c23)c1=O [Compound 382] | 60 | 90 | 100 | 100 | 40 | 80 | 95 | 70 | 100 | 80 | 30 | 100 | 100 | 80 | 80 | 90 | 60 | 45
